From patent US12384751B2, “Allosteric activators of the ALPHA1A-adrenergic receptor” (The Cleveland Clinic Foundation, priority 2019, dated 2025)
Entries after “also recorded” stand apart in the source; their conditions may differ.

Key:
[1] = Mean arterial blood pressure in 3×TG AD mice; format: in vivo; settings: 3×TG mice
Method: A 10 month continuous dose study was performed in the 3×TG Alzheimer's Disease (AD) mouse model containing the triple mutations (APP(swe), PS1(M146V), tau(P301L)) from Jackson labs. Synaptic dysfunction and LTP deficits manifests in an age-related manner beginning from 2-6 months that occurs prior to Aβ pathology (87, herein incorporated by reference). Hippocampal-dependent cognitive impairments begin at 4-6 months depending upon the strain (88-89, herein incorporated by reference). 3×Tg mice have documented cognitive deficits in the Morris water maze (88) and Barnes maze (9, 90). Deficits in long-term synaptic plasticity correlate with the accumulation of intraneuronal Aβ (88). 3×Tg have decreased neurogenesis in both SGZ and SVZ before Aβ pathology and treatments that increased neurogenesis improved memory in 3×TG mice (18-19, herein incorporated by reference).
(§1) AD mice were first randomized and sorted into control or treatment groups. […] 14 AD mice from each treatment group received Compound 3 in the drinking water (2.611 mg/kg/bw) to deliver a daily dose near the peak potentiation of the cAMP response in the brain at 10^−8M based upon the PAM assay and pharmacokinetics. This was achieved by adding Compound 3 to the drinking water at 32 uM, assuming the mice drink 6 ml/day, with only 10% of bioavailable drug reaching the brain. The drug was administered in the drinking water for 10 months, starting at age 2 months, then subjected to either different cognitive behavioral tests or electrophysiology at age 12 months to maximize the manifestations of AD symptoms in these mice. Mice are maintained on the drug for the duration of the studies and blinded to the operator.
(§2) At 12 months of age mice were subjected to long term potentiation (LTP) (FIG. 25).
Assessment: Blood pressure. […]

[2] = test system: 3×TG Alzheimer's Disease (AD) mouse model; settings: in vivo
Method: as §1

[3] = Body weight of 3×TG AD mice; format: in vivo, mouse; settings: female 3×TG mice
Method: as §1, §2
It is known that females in the 3×TG AD mouse model have higher penetrance for the disease than males so an increase in body weight may be a general sign of better health. Weight loss and muscle loss are well-known symptoms associated with AD (91-93).

[4] = target: T1, α1B-AR (Homo sapiens, UniProt P35368); assay: cAMP assay at α1B-AR; format: cell-based
T1 construct: expressed in transfected cells; host or cells: Rat-1 fibroblast cells
T1 sequence (P35368 1-520): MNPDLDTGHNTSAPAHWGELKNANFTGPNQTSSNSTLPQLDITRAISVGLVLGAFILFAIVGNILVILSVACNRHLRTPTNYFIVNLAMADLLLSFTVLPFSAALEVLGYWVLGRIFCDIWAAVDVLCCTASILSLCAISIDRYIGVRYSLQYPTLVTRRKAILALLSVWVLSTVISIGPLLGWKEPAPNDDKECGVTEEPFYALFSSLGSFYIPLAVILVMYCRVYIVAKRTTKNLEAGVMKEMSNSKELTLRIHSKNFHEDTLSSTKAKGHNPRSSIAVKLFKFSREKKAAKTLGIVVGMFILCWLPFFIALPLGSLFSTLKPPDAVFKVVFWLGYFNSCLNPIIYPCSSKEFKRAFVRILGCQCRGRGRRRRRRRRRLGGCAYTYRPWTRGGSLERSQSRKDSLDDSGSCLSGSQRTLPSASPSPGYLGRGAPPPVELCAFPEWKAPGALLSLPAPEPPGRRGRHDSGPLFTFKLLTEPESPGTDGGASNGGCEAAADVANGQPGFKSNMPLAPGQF
Method: cAMP assay: Cells expressing a single α1-adrenergic receptor subtype are washed and re-plated into 24-well plates in DMEM media without serum at approximately 2.4×10^4 cells/well. Cells are allowed to rest till the next day in a CO2 incubator at 37° C. The cells are washed twice with DMEM (no serum), then 1 ml of DMEM is added to each well. Cells are pre-incubated for 45 mins-1 hour at 37° C. in a CO2 incubator with 10 uM propranolol, followed by 100 uM IBMX for 30 minutes. Final DMSO concentration is at 0.05%. Norepinephrine or epinephrine is added in a dose response (1 dose per well) in addition to one of the Compounds 1-10 at one concentration (i.e. 10^−5M). Cells are incubated for another 30 mins at 37° C. in a CO2 incubator. The reaction is concluded by aspirating the media and adding 0.1M HCL. The mixture is incubated for 20 mins at room temperature. The cells are scraped and suspended until homogenous. The mixture is centrifuged at 1000 g for 10 mins and the supernatant assayed the same day according to a manufacturer's cAMP kit (Cayman Select Cyclic AMP EIA kit #501040).

[5] = drinking water 2.611 mg/kg/bw, N=13-16

Structure (SMILES): CC(C)Cc1c(OCC2=NCCN2)cccc1N(C)S(C)(=O)=O [Compound 3, N-[3-(4,5-Dihydro-1H-imidazol-2-ylmethoxy)-2-isobutyl-phenyl]-N-methyl-methanesulfonamide]
- blood pressure, treated vs untreated [1]: no significant differences; also recorded: does not affect blood pressure
- mean arterial blood pressure, treated females (F) [1, 5]: 85±2.4
- mean arterial blood pressure, treated males (M) [1, 5]: 97±3
- death rates between groups [2]: no differences in the death rates
- body weight vs untreated [3]: increased body weight; also recorded: retained or gained body weight
- effect on norepinephrine cAMP response at the α1B-AR [4]: no effect
